What was measured:
[1] = mouse, in vivo, po, 40 mg/kg
[2] = cited from earlier work
CYP2C9 = CYP2C9 (Homo sapiens, UniProt P11712); assay: Kinetic study of metabolite formation by recombinant CYP2C9; details: recombinant CYP2C9 incubations
[3] = cited from earlier work; remark: listed apart in the source

Chain of CYP2C9 (P11712 whole entry): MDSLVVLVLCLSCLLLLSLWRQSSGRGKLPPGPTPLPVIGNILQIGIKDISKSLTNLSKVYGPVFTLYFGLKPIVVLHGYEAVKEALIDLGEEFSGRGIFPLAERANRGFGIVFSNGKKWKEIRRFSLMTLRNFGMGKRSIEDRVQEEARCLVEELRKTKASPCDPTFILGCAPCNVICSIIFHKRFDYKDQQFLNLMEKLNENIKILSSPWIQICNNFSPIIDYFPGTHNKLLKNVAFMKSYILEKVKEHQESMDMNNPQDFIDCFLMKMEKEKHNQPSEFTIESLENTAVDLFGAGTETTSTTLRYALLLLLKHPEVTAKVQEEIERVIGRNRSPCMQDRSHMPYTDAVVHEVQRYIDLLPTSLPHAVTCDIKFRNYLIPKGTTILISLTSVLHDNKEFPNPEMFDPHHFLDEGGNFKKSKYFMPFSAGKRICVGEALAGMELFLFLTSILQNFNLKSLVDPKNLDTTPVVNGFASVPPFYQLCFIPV

For `O=C(C1CCC(O)CC1)N1CC(=O)N2CCc3ccccc3C2C1` (centres unmarked) [III, 4-OH PZQ], which “Source (matrix in which detected)” value [1] is on record?
The value was “urine, feces”.

What does the source list for `O=C(C1CCCCC1)N1CC(=O)N2CCc3ccccc3[C@@H]2C1` [(R)-PZQ]?
side effects compared with racemic PZQ ([2]; single administration of 20 mg/kg vs 40 mg/kg racemic): fewer side effects; activity compared with 40 mg/kg of racemic PZQ ([2]; single administration of 20 mg/kg): same activity; production of metabolite V (CYP2C9): not detected

Which “systemic levels compared with (R)-PZQ” value [3] does the source give for `O=C(C1CCCCC1)N1CC(=O)N2CCc3ccccc3[C@H]2C1` [(S)-PZQ] here?
The value was “higher”.
